The NIST ThermoML archive (doi:10.1016/j.fluid.2014.11.020)
Numbers after ± are expanded uncertainties.

Assay: activity coefficient (dimensionless); of the first substance listed, at infinite dilution; xn = mol fraction of the nth substance listed
Conditions: Liquid, Chromatography, x1 = 0

Structure (SMILES)	activity coefficient (323.15 K)	activity coefficient (333.15 K)	activity coefficient (343.15 K)
C#CCCCCC [1-heptyne] + Cn1cc[n+](COCCCOC[n+]2ccn(C)c2)c1.N#C[N-]C#N.N#C[N-]C#N	27.6 ± 1.9	26.2 ± 1.8	26.1 ± 1.8
CCCC(C)=O [pentan-2-one] + N#C[N-]C#N.N#C[N-]C#N.c1ccc(Cn2cc[n+](COCCCOC[n+]3ccn(Cc4ccccc4)c3)c2)cc1	3.1 ± 0.21	3.05 ± 0.21	3.08 ± 0.21
CC(C)CO [2-methyl-1-propanol] + CN(C)c1cc[n+](COCCCOC[n+]2ccc(N(C)C)cc2)cc1.O=S(=O)([N-]S(=O)(=O)C(F)(F)F)C(F)(F)F.O=S(=O)([N-]S(=O)(=O)C(F)(F)F)C(F)(F)F	1.85 ± 0.12	1.66 ± 0.11	1.5 ± 0.1
C#CCCCCC [1-heptyne] + CCCCCCCCn1cc[n+](COCCCOC[n+]2ccn(CCCCCCCC)c2C)c1C.N#C[N-]C#N.N#C[N-]C#N	2.1 ± 0.14	2.12 ± 0.14	2.15 ± 0.15
CC(C)CO [2-methyl-1-propanol] + Cn1cc[n+](COCCCOC[n+]2ccn(C)c2)c1.N#C[N-]C#N.N#C[N-]C#N	1.94 ± 0.13	1.81 ± 0.12	1.73 ± 0.12
CCCCCCCCC [nonane] + CCCOC[n+]1ccn(C)c1.O=S(=O)([N-]S(=O)(=O)C(F)(F)F)C(F)(F)F	52.4 ± 3.6	45.9 ± 3.1	40.5 ± 2.8
CC#N [acetonitrile] + N#C[N-]C#N.N#C[N-]C#N.c1ccc(Cn2cc[n+](COCCCOC[n+]3ccn(Cc4ccccc4)c3)c2)cc1	0.99 ± 0.06	0.97 ± 0.06	0.98 ± 0.06
CO [methanol] + CCCCCCCCn1cc[n+](COCCCOC[n+]2ccn(CCCCCCCC)c2C)c1C.O=S(=O)([N-]S(=O)(=O)C(F)(F)F)C(F)(F)F.O=S(=O)([N-]S(=O)(=O)C(F)(F)F)C(F)(F)F	0.57 ± 0.04	0.51 ± 0.04	0.49 ± 0.04
Cc1ccccc1C [1,2-dimethylbenzene] + N#C[N-]C#N.N#C[N-]C#N.c1ccc(Cn2cc[n+](COCCCOC[n+]3ccn(Cc4ccccc4)c3)c2)cc1	7.13 ± 0.49	6.87 ± 0.47	6.71 ± 0.46
CCO [ethanol] + CCCOC[n+]1ccn(Cc2ccccc2)c1.N#C[N-]C#N	0.73 ± 0.05	0.6 ± 0.04	0.59 ± 0.04
Cc1cccc(C)c1 [1,3-dimethylbenzene] + N#C[N-]C#N.N#C[N-]C#N.c1ccc(Cn2cc[n+](COCCCOC[n+]3ccn(Cc4ccccc4)c3)c2)cc1	8.85 ± 0.6	8.51 ± 0.58	8.32 ± 0.57
CCCCCCCCCCC [undecane] + CCCOC[n+]1ccn(Cc2ccccc2)c1.O=S(=O)([N-]S(=O)(=O)C(F)(F)F)C(F)(F)F	41.6 ± 2.9	31 ± 2.1	27.7 ± 1.9
CC(C)CO [2-methyl-1-propanol] + CCCOC[n+]1ccn(C)c1.F[B-](F)(F)F	4.35 ± 0.3	3.95 ± 0.27	3.56 ± 0.24
C[N+](=O)[O-] [nitromethane] + N#C[N-]C#N.N#C[N-]C#N.c1ccc(Cn2cc[n+](COCCCOC[n+]3ccn(Cc4ccccc4)c3)c2)cc1	0.86 ± 0.06	0.85 ± 0.05	0.87 ± 0.06
ClC(Cl)Cl [trichloromethane] + Cn1cc[n+](COCCCOC[n+]2ccn(C)c2)c1.N#C[N-]C#N.N#C[N-]C#N	1.02 ± 0.06	1.08 ± 0.07	1.14 ± 0.07
c1ccncc1 [pyridine] + CCCCCCCCn1cc[n+](COCCCOC[n+]2ccn(CCCCCCCC)c2C)c1C.O=S(=O)([N-]S(=O)(=O)C(F)(F)F)C(F)(F)F.O=S(=O)([N-]S(=O)(=O)C(F)(F)F)C(F)(F)F	0.13 ± 0.03	0.14 ± 0.03	0.15 ± 0.03
CC#N [acetonitrile] + CCCCCCCCn1cc[n+](COCCCOC[n+]2ccn(CCCCCCCC)c2C)c1C.O=S(=O)([N-]S(=O)(=O)C(F)(F)F)C(F)(F)F.O=S(=O)([N-]S(=O)(=O)C(F)(F)F)C(F)(F)F	0.26 ± 0.03	0.25 ± 0.03	0.25 ± 0.03
c1ccccc1 [benzene] + Cn1cc[n+](COCCCOC[n+]2ccn(C)c2)c1.N#C[N-]C#N.N#C[N-]C#N	3.03 ± 0.21	3.05 ± 0.21	3.08 ± 0.21
CCCCCC [hexane] + CCCOC[n+]1ccc(N(C)C)cc1.O=S(=O)([N-]S(=O)(=O)C(F)(F)F)C(F)(F)F	11.9 ± 0.81	11 ± 0.75	10.1 ± 0.69
C1CCCCC1 [cyclohexane] + CCCCCCCCn1cc[n+](COCCCOC[n+]2ccn(CCCCCCCC)c2C)c1C.N#C[N-]C#N.N#C[N-]C#N	4.29 ± 0.29	3.86 ± 0.26	3.71 ± 0.25
c1ccccc1 [benzene] + CCCCCCCCn1cc[n+](COCCC)c1C.O=S(=O)([N-]S(=O)(=O)C(F)(F)F)C(F)(F)F	0.6 ± 0.04	0.59 ± 0.04	0.59 ± 0.04
